Measured values as given in patent US20230000876A1, “TREATING CANCERS WITH A CYCLIN-DEPENDENT KINASE INHIBITOR” (Nuvation Bio Inc., priority 2021, published 2023).
Like-named read-outs stand apart in the source and are kept apart here.

Assays:
xMDA-MB-361 breast tumor = xMDA-MB-361 breast tumor model (ER-positive/HER2-positive); format: in vivo, female BALB/c nude mice; conditions: Group 2: Fulvestrant 1 mg/dose SC QW*42 days
Procedure: Trastuzumab, tucatinib, Compound (I), and fulvestrant were tested in a xMDA-MB-361 breast tumor model (ER-positive/HER2-positive) on female BALB/c nude mice.

MCF-7 tumors [1] = format: in vivo; conditions: 1/3/5 mg/dose SC QW, PG-D49
Procedure: The in vivo anti-tumor efficacy of the compound of formula (I) either alone or in combination with fulvestrant on MCF-7 breast tumor model on female Balb/c nude mice was evaluated. The protocol was he same as described in Example 1 with the exception that the dosing schedule of fulvestrant was modified.

xBT474 breast tumor = xBT474 breast tumor model (ER-negative/HER2-positive); conditions: Group 2: Fulvestrant 1 mg/dose SC QW*28 days
MCF-7 tumors [2] = format: in vivo; conditions: for T/C / TGI: PG-D37
Procedure: The in vivo anti-tumor efficacy of the compound of formula (I) either alone or in combination with fulvestrant on MCF-7 breast tumor model on female Balb/c nude mice was assessed. MCF-7 cells are a breast cancer cell line that is HR+HER2−. See Booms et al., (2019) Cancer Epidemiol Biomarkers Prev 28(10); 1735-1745, which is hereby incorporated by reference.
The study was in two parts. The first part was designed to measure tumor growth inhibition (TGI). The second part was used to measure pharmacokinetic and pharmacodynamic (PKPD) parameters. In the studies, the compound of formula (I) was dosed orally (po) and fulvestrant was dosed subcutaneously. […]
The MCF-7 tumor cells were maintained in vitro in MEM supplemented with 10% heat inactivated fetal bovine serum at 37° C. in an atmosphere of 5% CO2 in air. The tumor cells were routinely subcultured twice weekly. The cells growing in an exponential growth phase were harvested and counted for tumor inoculation.
Each mouse was inoculated subcutaneously at the right flank with MCF-7 (10*10^6) cells in 0.2 mL of PBS mixed with Matrigel (50:50) for tumor development. 17β-Estradiol (0.36 mg, 60-day release) pellets (Innovative Research of America Cat. No.: SE-121, pellet size: 3.0 mm) were implanted 2 days before cell inoculation.
In TGI part, the treatments was started on day 7 after cell inoculation when the average tumor volume reaches 173 mm^3. 72 mice were selected and assigned into 9 groups. The testing articles were administrated to the mice according to Table 1.
For TGI part, the major endpoint was to see if the tumor growth could be delayed or mice could be cured. Tumor size was measured twice weekly in two dimensions using a caliper, and the volume was expressed in mm^3 using the formula: V=0.5 a×b^2 where a and b are the long and short diameters of the tumor, respectively. The tumor sizes are then used for the calculation of T/C and TGI values.
The T/C value (in percent) is an indication of antitumor effectiveness; T and C are the mean volume of the treated and control groups, respectively, on a given day.
TGI was calculated for each group using the formula: TGI (%)=[1−(Ti−T0)/(Vi−V0)]×100; Ti is the average tumor volume of a treatment group on PG-Di, T0 is the average tumor volume of the treatment group on the day of treatment start, Vi is the average tumor volume of the vehicle control group on the same day with Ti, and V0 is the average tumor volume of the vehicle group on the day of treatment start.
For comparison among of tumor volume of groups 2-9 and group 1, a one-way ANOVA was performed. All the analysis were conducted using GraphPad Prism software. p<0.05 was considered to be statistically significant.

C[C@]12CC[C@@H]3c4ccc(O)cc4C[C@@H](CCCCCCCCC[S+]([O-])CCCC(F)(F)C(F)(F)F)[C@H]3[C@@H]1CC[C@@H]2O (stereo partly shown) [Fulvestrant, reference compound]
Tumor volume (mean ± SEM) (xMDA-MB-361 breast tumor; Day 0): 157 ± 13 mm^3 | Tumor volume (mean ± SEM) (xMDA-MB-361 breast tumor; Day 3): 185 ± 11 mm^3 | Tumor volume (mean ± SEM) (xMDA-MB-361 breast tumor; Day 7): 226 ± 28 mm^3 | Tumor volume (mean ± SEM) (xMDA-MB-361 breast tumor; Day 10): 321 ± 53 mm^3 | Tumor volume (mean ± SEM) (xMDA-MB-361 breast tumor; Day 14): 489 ± 101 mm^3 | Tumor volume (mean ± SEM) (xMDA-MB-361 breast tumor; Day 17): 588 ± 153 mm^3 | Tumor volume (mean ± SEM) (xMDA-MB-361 breast tumor; Day 21): 773 ± 204 mm^3 | Tumor volume (mean ± SEM) (xMDA-MB-361 breast tumor; Day 24): 890 ± 235 mm^3 | Tumor volume (mean ± SEM) (xMDA-MB-361 breast tumor; Day 28): 1022 ± 256 mm^3 | Tumor volume (mean ± SEM) (xMDA-MB-361 breast tumor; Day 31): 1113 ± 293 mm^3 | Tumor volume (mean ± SEM) (xMDA-MB-361 breast tumor; Day 35): 1192 ± 330 mm^3 | Tumor volume (mean ± SEM) (xMDA-MB-361 breast tumor; Day 38): 1300 ± 344 mm^3 | Tumor volume (mean ± SEM) (xMDA-MB-361 breast tumor; Day 42): 1396 ± 356 mm^3 | T/C (MCF-7 tumors [1]): 38.19% | TGI (MCF-7 tumors [1]): 71.50% | Tumor Size (MCF-7 tumors [1]): 451 mm^3 | Tumor volume (mean ± SEM) (xBT474 breast tumor; Day 0): 146 ± 10 mm^3 | Tumor volume (mean ± SEM) (xBT474 breast tumor; Day 4): 188 ± 26 mm^3 | Tumor volume (mean ± SEM) (xBT474 breast tumor; Day 7): 187 ± 14 mm^3 | Tumor volume (mean ± SEM) (xBT474 breast tumor; Day 11): 311 ± 55 mm^3 | Tumor volume (mean ± SEM) (xBT474 breast tumor; Day 14): 391 ± 55 mm^3 | Tumor volume (mean ± SEM) (xBT474 breast tumor; Day 18): 468 ± 69 mm^3 | Tumor volume (mean ± SEM) (xBT474 breast tumor; Day 21): 532 ± 79 mm^3 | Tumor volume (mean ± SEM) (xBT474 breast tumor; Day 25): 617 ± 93 mm^3 | Tumor volume (mean ± SEM) (xBT474 breast tumor; Day 28): 741 ± 113 mm^3 | Tumor volume (mean ± SEM) (xBT474 breast tumor; Day 32): 750 ± 115 mm^3 | Tumor volume (mean ± SEM) (xBT474 breast tumor; Day 35): 797 ± 121 mm^3 | Tumor volume (mean ± SEM) (xBT474 breast tumor; Day 39): 800 ± 131 mm^3 | Tumor volume (mean ± SEM) (xBT474 breast tumor; Day 42): 843 ± 146 mm^3 | Tumor volume (mean ± SEM) (xBT474 breast tumor; Day 46): 816 ± 138 mm^3 | T/C (MCF-7 tumors [2]; 1 mg/dose QW): 42.68% | TGI (MCF-7 tumors [2]; 1 mg/dose QW): 62.74% | Tumor volume (mean ± SEM) (MCF-7 tumors [2]; 1 mg/dose SC QW, day 0): 173 ± 12 mm^3 | Tumor volume (mean ± SEM) (MCF-7 tumors [2]; 1 mg/dose SC QW, day 3): 206 ± 10 mm^3 | Tumor volume (mean ± SEM) (MCF-7 tumors [2]; 1 mg/dose SC QW, day 6): 272 ± 20 mm^3 | Tumor volume (mean ± SEM) (MCF-7 tumors [2]; 1 mg/dose SC QW, day 9): 315 ± 33 mm^3 | Tumor volume (mean ± SEM) (MCF-7 tumors [2]; 1 mg/dose SC QW, day 13): 389 ± 50 mm^3 | Tumor volume (mean ± SEM) (MCF-7 tumors [2]; 1 mg/dose SC QW, day 16): 472 ± 47 mm^3 | Tumor volume (mean ± SEM) (MCF-7 tumors [2]; 1 mg/dose SC QW, day 20): 595 ± 87 mm^3 | Tumor volume (mean ± SEM) (MCF-7 tumors [2]; 1 mg/dose SC QW, day 23): 623 ± 93 mm^3 | Tumor volume (mean ± SEM) (MCF-7 tumors [2]; 1 mg/dose SC QW, day 27): 697 ± 104 mm^3 | Tumor volume (mean ± SEM) (MCF-7 tumors [2]; 1 mg/dose SC QW, day 30): 727 ± 116 mm^3 | Tumor volume (mean ± SEM) (MCF-7 tumors [2]; 1 mg/dose SC QW, day 34): 829 ± 130 mm^3 | Tumor volume (mean ± SEM) (MCF-7 tumors [2]; 1 mg/dose SC QW, day 37): 856 ± 140 mm^3 | Tumor volume (mean ± SEM) (MCF-7 tumors [2]; 1 mg/dose SC QW, day 41): 859 ± 142 mm^3 | Tumor volume (mean ± SEM) (MCF-7 tumors [2]; 1 mg/dose SC QW, day 44): 808 ± 164 mm^3 | Tumor volume (mean ± SEM) (MCF-7 tumors [2]; 1 mg/dose SC QW, day 48): 623 ± 104 mm^3 | T/C (MCF-7 tumors [2]; 3 mg/dose QW): 15.70% | TGI (MCF-7 tumors [2]; 3 mg/dose QW): 92.26% | Tumor volume (mean ± SEM) (MCF-7 tumors [2]; 3 mg/dose SC QW, day 0): 173 ± 13 mm^3 | Tumor volume (mean ± SEM) (MCF-7 tumors [2]; 3 mg/dose SC QW, day 3): 181 ± 9 mm^3 | Tumor volume (mean ± SEM) (MCF-7 tumors [2]; 3 mg/dose SC QW, day 6): 205 ± 16 mm^3 | Tumor volume (mean ± SEM) (MCF-7 tumors [2]; 3 mg/dose SC QW, day 9): 240 ± 12 mm^3 | Tumor volume (mean ± SEM) (MCF-7 tumors [2]; 3 mg/dose SC QW, day 13): 310 ± 25 mm^3 | Tumor volume (mean ± SEM) (MCF-7 tumors [2]; 3 mg/dose SC QW, day 16): 337 ± 33 mm^3 | Tumor volume (mean ± SEM) (MCF-7 tumors [2]; 3 mg/dose SC QW, day 20): 285 ± 32 mm^3 | Tumor volume (mean ± SEM) (MCF-7 tumors [2]; 3 mg/dose SC QW, day 23): 288 ± 44 mm^3 | Tumor volume (mean ± SEM) (MCF-7 tumors [2]; 3 mg/dose SC QW, day 27): 275 ± 35 mm^3 | Tumor volume (mean ± SEM) (MCF-7 tumors [2]; 3 mg/dose SC QW, day 30): 294 ± 35 mm^3 | Tumor volume (mean ± SEM) (MCF-7 tumors [2]; 3 mg/dose SC QW, day 34): 314 ± 48 mm^3 | Tumor volume (mean ± SEM) (MCF-7 tumors [2]; 3 mg/dose SC QW, day 37): 315 ± 50 mm^3 | Tumor volume (mean ± SEM) (MCF-7 tumors [2]; 3 mg/dose SC QW, day 41): 329 ± 54 mm^3 | Tumor volume (mean ± SEM) (MCF-7 tumors [2]; 3 mg/dose SC QW, day 44): 294 ± 48 mm^3 | Tumor volume (mean ± SEM) (MCF-7 tumors [2]; 3 mg/dose SC QW, day 48): 228 ± 29 mm^3
